Literature values in patent publication US20090048181A1, “Combination therapy with glatiramer acetate and n-acetylcysteine for the treatment of multiple sclerosis” (priority 2004, published 2009).

How the values were obtained:
TNF-α = details: ten human patients suffering from multiple sclerosis; efficacy could not be ascertained
[1] = system: EAE, a murine model of multiple sclerosis
[2] = system: relapsing-remitting multiple sclerosis; details: daily subcutaneous injections, 20 mg/injection

Compound | TNF-α level (TNF-α) | induction of EAE ([1]; SJL/J mice, oral administration) | effect in animals with established EAE ([1]; established EAE, correlated with treatment in a dose-related manner) | appearance of "black holes" [2] | appearance of new lesions by magnetic resonance imaging (MRI) [2] | progression of disability [2] | relapse rates [2]
CC(=O)N[C@@H](CS)C(=O)O [N-acetylcysteine] | elevation | attenuated | improvement |  |  |  | 
L-glutamic acid polymer with L-alanine, L-lysine and L-tyrosine, acetate (salt) [glatiramer acetate] |  |  |  | reduce | reduce | reduce | reduce
